Laboratory results from patent US9067928B2 (Genentech, Inc., priority 2008, dated 2015).

Assays:
Bcl-xL = target: T1, Bcl-xL (Homo sapiens, UniProt Q07817); experiment: Alpha Screen Bcl-xL binding assay, competition with Bim26-mer; settings: values listed in the order of Table 1; read-out: Alphascreen results (IC50)
T1 construct: made in house
Protocol: The measurement of competition of compounds of the invention with Bim26-mer for a Bcl-2 family protein binding site using an Alpha Screen Bcl-xL Binding Assay:
The BH3 proteins ALPHASCREEN™ assay was used to identify active small molecules Bcl-2 family protein screen. e.g., Bcl-xL, hmMcl-1 screen. To determine an accurate estimation of the IC50, the compounds were routinely tested at starting concentrations, 100 μM and/or 1 μM and serially titrated 3 fold over 11 dilutions.
The beads come in close proximity when the protein and the peptides interact. Donor beads contain a photosensitiser that converts oxygen to an excited form of O2 at an excitation of 680 nm. Energy is transformed from the singlet oxygen and reacts with chemiluminescers on the acceptor bead, resulting in light emission at 520-620 nm. […] With this information, the IC50 of each compound was calculated
GST-Bcl-xL, GST-hmMcl-1 and biotinylated GST proteins were prepared in-house and were stored as stock solutions at −80° C. The biotinylated-Bak, and biotinylated-Bim peptides were purchased from Auspep and were stored as 500 μM stock solutions in 100% DMSO at −80° C. The ALPHASCREEN™ GST (Glutathione-S-Transferase) Detection Kit was obtained from Perkin Elmer Lifesciences (Cat #6760603R). The Proxiplates, white 384 well flat-Bottom plates were purchased from Interpath Services, Melbourne (Cat #784075). The seals to cover the plates were purchased from Proscience. Melbourne (Cat#784075). DMSO was purchased from AnalaR. The 384 deep well plates and the Polypropylene 50 μL, V bottom polypropylene compound plates were purchased from Matrical.
Compounds of the invention were prepared as 10 mM stocks with 100% DMSO on the day prior to performing the assay. […] To achieve a final compound concentration of 1 μM, in a separate matrical plate, 28 μL of 100% DMSO and 2 μL of 10 mM compound was added to a well, mixed well. 2 μL of this solution was taken and added to 38 μL of 100% DMSO. 20 μL of this solution was added to the test matrical plate. Several control compounds were included in the test plates. For the control wells 15 μL 100% DMSO only was added to the appropriate wells of each plate. The compound plates were then serially diluted 2 fold using the MiniTrak. Once titrations were complete, the compound plate was immediately covered with a foil seal to prevent evaporation.
The assay and bead buffers were prepared fresh. Each titrated compound plate was assayed in duplicate. The following volumes were sufficient to run 12 Proxiplates (4 assay plates run in duplicate in each of Bclxl, hmMcl and counter assays)
Protein and Peptide Preparation; and Assay Performance • 1. The assay and bead buffers were used to prepare the acceptor and donor solutions. ALPHASCREEN™ beads are light sensitive and therefore prepared in a darkened room. 2.5 μL of beads were added per 1 mL of buffer. • 2. The volume of protein or peptide to add was calculated using the following formula:
[formula] • C1=Final Concentration of protein/peptide • C2=Stock Concentration of protein/peptide • V1=Total Volume of Acceptor/Donor Solution • V2=Volume of stock protein/Peptide to add to Acceptor/Donor solution • 3. The assay components were prepared as separate Acceptor and Donor Solutions. The Acceptor Solution contained Acceptor heads and target protein, while the Donor Solution contained Donor beads and biotinylated peptide.
• 4. After the solutions were prepared, they were left to incubate for 30 minutes at room temperature to allow the beads to bind to the protein and the peptide. • 5. 50 μL of Bcl-xL solution, 50 μL of hmMcl-1 solution and 50 µL of biotinylated-GST were added into separate deep wells on an assay plate. A control […]. Assay/Bead buffer was added separate well plates (no protein). • 6.

[1] = system: Mcl-1-/- mouse embryonic fibroblasts (MEF); experiment: Cell viability assay for Mcl-1-/- mouse embryonic fibroblasts (CellTiter-Glo); assay type: cell-based; settings: Fibroblast, 1% Fetal Bovine Serum, read-out: MEF Mcl-1-/- KO cell viability results (EC50)
Description: a. Cell Viability Assay for Mcl-1^−/− Mouse Embryonic Fibroblasts (MEF):
Neutralization of both […] and Mcl-1 anti-apoptotic proteins in normal cells is required before a cell undergoes apoptosis via the downstream Bax/Bak pathway See, Chen. L. et al. Mol. Cell (2005) 17, 393-403; Willis, S. N. et al. Genes Dev. (2005) 19, 1294-1305. A compound that only targets Bcl-xL should not affect normal cells, but could kill certain cancer cells if they rely more on Bcl-xL and less on other anti-apoptotic proteins, e.g. Mcl-1, for survival. To mirror this, compounds of the invention were tested for its effect on survival of wild type (wt) mouse embryo fibroblasts (MEFs), Bax/Bak double knockout (BB DKO) MEFs, MEFs that expressed Noxa, and MEFs that expressed Bad. Noxa specifically neutralizes Mcl-1. […] MEFs that express Noxa mirror cancer cell types that are reliant on Bcl-xL for survival and should be much more sensitive to killing by a Bcl-xL targeting compound than MEFs where both Bcl-xL and Mcl-1 are protective.
In this assay, Mcl-1^(−/−) cells were used to confirm that cell apoptosis in the presence of BH3 mimetic small molecules was due to predominantly Bcl-xL inactivation. This inactivation leaves Bax/Bak unconstrained and results in apoptosis. The […]-GLO Luminescent Cell Viability Assay is a homogeneous method of determining the number of viable cells in culture based on quantitation of the ATP present. The amount of ATP correlates with the presence of metabolically active cells such that following cell lysis the amount of ATP present is proportional to the amount of luminescence measured.
Mcl-1^(−/−) mouse embryonic fibroblasts (MEFs) are an adherent cell line prepared in house. MEFs were grown in Iwaki 75 cm^2 tissue culture flasks (cat #3123-075) with FMA media which consists of: • 89% DME Kelso • 10% heat-inactivated foetal calf serum (FCS) (Hyclone cat #SH30396.03) • 1% 10 mM asparagine (Fluka cat #11149) • 275 μl of a 1:2000 dilution of 2-mercaptoethanol is added to the final 500 ml volume of FMA (Sigma cat #M7522; diluted in MT-PBS)
FMA was stored at 4° C. and used at 37° C. MEFs were cultured in FMA media and harvested in MT-PBS and trypsin. For MEF cell viability assays, cells were seeded separately in plates with 10% FCS-FMA and 1% FCS-FMA. […]
Automated Systems that can be used in this assay include: 1) Multidrop—The MULTIDROP 384 (ThermoLabsystems) dispenser was used to dispense cells aseptically into the assay plates: 2) MiniTrak—The […] system from Perkin Elmer was used for titration of the compound plates; 3) Zymark—The ZYMARK SCICLONE ALH3000 System with 100 nL pintool head was used for compound addition to the cells; 4) EnVision—The ENVISION plate reader was used to measure the viability via the detection of the luminescence. […]

T1 sequence (Q07817 whole entry, species assumed): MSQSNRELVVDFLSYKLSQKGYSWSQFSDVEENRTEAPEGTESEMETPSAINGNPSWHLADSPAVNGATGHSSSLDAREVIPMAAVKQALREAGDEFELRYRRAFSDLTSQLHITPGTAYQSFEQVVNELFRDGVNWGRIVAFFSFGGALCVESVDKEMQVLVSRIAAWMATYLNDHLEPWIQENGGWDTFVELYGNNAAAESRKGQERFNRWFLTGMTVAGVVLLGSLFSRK

IC50 (Bcl-xL) [nM]	SMILES	EC50 [1] [nM]
6	CC(C)Oc1ccc(-c2sc(-c3ccc4c(c3)N(C(=O)Nc3nc5ccccc5s3)CCC4)nc2C(=O)O)cc1 [Example 79, 2-(1-(benzo[d]thiazol-2-ylcarbamoyl)-1,2,3,4-tetrahydroquinolin-7-yl)-5-(4-isopropoxyphenyl)thiazole-4-carboxylic acid]	210
10	O=C(O)c1nc(-c2ccc3c(c2)N(C(=O)Nc2nc4ccccc4s2)CCC3)ccc1OCCCc1ccccc1 [Example 90, 6-(1-(benzo[d]thiazol-2-ylcarbamoyl)-1,2,3,4-tetrahydroquinolin-7-yl)-3-(3-phenylpropoxy)picolinic acid]	590
